Patent US6376617B1, “Bioactive derivatives of camptothecin” (Pharmacia & Upjohn S.p.A., priority 1997, dated 2002)

System: human colon carcinoma (HT29)
Assay: Antitumor activity on human colon carcinoma (HT29) transplanted in nude mice
Settings: HT29 sc in nude mice; for TI% 46th day (tumor inhibition %): day 46
Experimental: Tumor fragment were implanted sc. Treatment started when tumor was palpable. TI % (tumor inhibition %) was calculated at day 46.

[1] = iv q4dx6, dose 20 mg/kg, total dose 120 mg/kg

CCc1c2c(nc3ccc(O)cc13)-c1cc3c(c(=O)n1C2)COC(=O)[C@]3(O)CC [1a, 7-ethyl-10-hydroxycamptothecin, reference compound]
Tox [1]: 1/7 | TI% 46th day (tumor inhibition %) [1]: 97%

copolymer of N-(2-hydroxypropyl)methacrylamide, {7-ethyl-10-hydroxy-20-O-[N-methacryloyl-glycyl-L-phenylalanyl-L-leucyl-glycyl]camptothecin} and N-(2-hydroxypropyl)methacryloylglycinamide [A1]
TI% 46th day (tumor inhibition %) (iv q4dx8, dose 5 mg/kg, total dose 40 mg/kg): 77% | TI% 46th day (tumor inhibition %) (iv q4dx8, dose 10 mg/kg, total dose 80 mg/kg): 91% | TI% 46th day (tumor inhibition %) (iv q4dx8, dose 20 mg/kg, total dose 160 mg/kg): 98%
